What was measured:
[1] = Blood pressure in telemetered rat model of hypertension; assay type: in vivo; conditions: single oral administration of 10, 30 or 100 mg/kg
Procedure: Supplementary Figure 8. EVT801 and sorafenib show opposing effects on blood pressure in rats. (A) Monitoring of the blood pressure over 24 h after single oral administration of 100 mg/kg EVT801 or 500 mg/kg of EVT801, compared to animals treated with vehicle. (B) Monitoring of the blood pressure over 24 h after single oral administration of 10 mg/kg sorafenib, 30 mg/kg sorafenib or 100 mg/kg of sorafenib, compared to animals treated with vehicle.

[2] = system: DEN-induced liver tumor; assay: N-diethylnitrosamine-induced hepatocarcinoma mouse model; assay type: in vivo, mice; conditions: 30 mg/kg daily for 2 months
Procedure: After weighing, 38 male C3/H mice received a 10 mg/kg dose of N-diethylnitrosamine (DEN) intraperitoneally, whereas a group of 5 animals was kept without DEN injection as control group. After 12 months, mice that received DEN injection were randomized by weight in two groups of each 19 animals. The mice were dosed daily orally for 2 months either with EVT801 or vehicle. On the day of termination, mice treated with EVT801 received a last dose of 30 mg/kg to take blood and tumor samples for compound concentration determination. After incision of the peritoneal cavity, blood was taken from the vena cava. Following excision and weighing of the liver, the number of tumors per liver was counted. The tumor burden was calculated as the sum of individual tumor volumes for each mouse. No blood sampling was performed on control and vehicle groups. Plasma and tumor samples were stored at −20°C until analysis. Concentration of EVT801 was determined by LC/MS-MS.

[3] = system: NCI-H1703 cells; assay: NCI-H1703 viability (ATP reduction); assay type: cell-based; conditions: Homo sapiens, in vitro
Procedure: NCI-H1703 were seeded in 96-well plates coated with 0.3 % gelatin (5 x 10^3 cells per well) and were incubated in RPMI 0.1 % FCS with VEGF-C (300 ng/mL) or VEGF-D (300 ng/mL) in the absence or presence of increasing doses of EVT801. After 5 days, viable cells were quantified with the cell Titer-glo luminescent cell viability assay (Promega) as previously described (1).

[4] = system: RT-HAM-001 tumors; assay: RT-001-HAM subcutaneous patient-derived xenograft tumor mouse model; assay type: in vivo, mice; conditions: 30 mg/kg twice per day, 7-day treatment
Procedure: Patient-derived tumors of the same passage were transplanted subcutaneously outbred athymic (nu/nu) female HSD mice. When tumor volume reached 726 to 1,437 mm^3, 4 donor mice were sacrificed by cervical dislocation, and tumors were aseptically excised and dissected. After removing necrotic areas, tumor fragments of approximately 20 mm^3 were transferred to culture medium before grafting. A total of 108 mice were anesthetized with 100 mg/kg ketamine hydrochloride (Virbac) and 10 mg/kg xylazine (Bayer). Then, a tumor fragment was placed in the subcutaneous tissue of an incision at the level of the interscapular region as described previously ([30]). All mice from the same experiment were implanted on the same day. A total of 54 mice with RT-001-HAM established growing tumor (P6.0.0/0) between 62.5 and 196 mm^3 were allocated according to tumor volume, ensuring homogenous median and mean tumor volume in each treatment arm. Treatments with 5 mL/kg vehicle, 30 mg/kg EVT801, or 30 mg/kg pazopanib started 15 days after tumor implantation and continued twice per day until termination 7 days later. Tumor volumes were measured via a caliper three times a week during the treatment period. All animals were weighed at the same time as tumor size measurement. Plasma and fresh tumor samples were collected at different timepoints after final dose at day 7 from all mice.

[5] = system: NCI-H1703 tumor xenografts; assay: NCI-H1703 subcutaneous xenograft tumor mouse model; assay type: in vivo, mice; conditions: 30 mg/kg twice per day
Procedure: A total number of 40 homozygous NOD.CB17 Prkdc^scid/NCrHsd mice were used for the xenograft tumor model. On the day of implantation, NCI-H1703 cells were harvested and suspended at a concentration of 1 × 10^8 cells per mL in an equal mix of Cultrex:RPMI without supplements. A volume of 100 μL was injected into the right hind flank of each animal. Tumor volumes were monitored until mean tumor volume reached 150 mm^3. Then, mice were stratified into four treatment groups of each 10 mice and orally dosed twice per day with either EVT801 30 mg/kg and EVT801 vehicle [Soluplus (BASF)/water/hydroxypropylcellulose SL (Nisso America)], or 30 mk/kg pazopanib and pazopanib vehicle (0.5% Hydroxypropyl methylcellulose trimellitate (HPMCT) + 0.1% Tween-80). A period of 8 hours was observed between the first and second daily dose.

[6] = system: hLMVEC; assay: Growth factor-induced hLMVEC proliferation; assay type: cell-based, human; conditions: stimulation by the ligand
Procedure: hLMVEC were seeded in white cell culture-treated flat and clear bottom multi-well plates and incubated at 37 °C overnight, before compounds were added. After incubation for 72 h at 37 °C, plates were equilibrated to ambient temperature for 1 h, and CellTiterGlo reagent (Promega) was added. After approximately 1h, luminescence was measured using a luminometer. Curves were fitted via sigmoidal dose response curves, and IC50 values were determined.

For `CNC(=O)c1cc(Oc2ccc(NC(=O)Nc3ccc(Cl)c(C(F)(F)F)c3)cc2)ccn1` [sorafenib, reference compound], the “effect on blood pressure” value [1] was “showed the opposite effect”, the “T/C ratio, tumor growth” value [2] was 32% and the liver weight [2] was “reduced liver weight”.

For `Cc1ccc(Nc2nccc(N(C)c3ccc4c(C)n(C)nc4c3)n2)cc1S(N)(=O)=O` [pazopanib, reference compound], the IC50 [3] was 90 nM, the “T/C ratio, tumor volume” value [4] was 77% and the “size of necrotic areas in tumors” value [4] was “remained unaffected”. The “hypoxic areas (CAIX) in tumors” value ([4]; not statistically significant) was “showed opposing effects”, the “CD31 IHC, tumor vessels” value [5] was “decreased the number of vessels while increasing the proportion of larger ones” and the “decrease of tumor weight compared with vehicle” value ([5]; endpoint) was 56%. For the same molecule, the “T/C ratio, tumor growth” value ([5]; oral, vs corresponding vehicle) was 53%.

B1: VEGF-D: VEGFR-3 ligand (protein, UniProt O43915 89-205, looked up)
Vascular endothelial growth …: FAATFYDIETLKVIDEEWQRTQCSPRETCVEVASELGKSTNTFFKPPCVNVFRCGGCCNEESLICMNTSTSYISKQLFEISVPLTSVPELVPVKVANHTGCKCLPTAPRHPYSIIRR
For B1, the “increase in hLMVEC proliferation” value [6] was 34%.

B2: VEGF-C: VEGFR-3 ligand (protein, UniProt P49767 112-227, looked up)
Vascular endothelial growth …: AHYNTEILKSIDNEWRKTQCMPREVCIDVGKEFGVATNTFFKPPCVSVYRCGGCCNSEGLQCMNTSTSYLSKTLFEITVPLSQGPKPVTISFANHTSCRCMSKLDVYRQVHSIIRR
With B2 the “increase in hLMVEC proliferation” value [6] was 50%.
